Key:
Homo sapiens = species on record: Homo sapiens; assay: (§1) Prostanoid, Thromboxane A2 (TP) Eurofins-Panlabs radioligand binding assay; set-up: ligand concentration 5 nM, non-specific ligand with concentration 1 µM SQ-29548, incubation time 30 min, incubation temperature 25 °C
[1] = as §1; set-up: species or system Homo sapiens; ligand concentration 5 nM, non-specific ligand with concentration 1 µM SQ-29548, incubation time 30 min, incubation temperature 25 °C
[2] = biological target: Inositol 1,4,5-trisphosphate-gated calcium channel ITPR1 (Homo sapiens) (UniProt Q14643); assay: Inositol Trisphosphate IP3 Eurofins-Panlabs radioligand binding assay; settings: Rattus norvegicus; Compound concentration 10.0 uM
[3] = biological target: Histamine H4 receptor (Homo sapiens) (UniProt Q9H3N8); assay: Histamine H4 Eurofins-Panlabs radioligand binding assay; settings: Compound concentration 10.0 uM
Sequence of Histamine H4 receptor (Homo sapiens) (Q9H3N8 whole entry): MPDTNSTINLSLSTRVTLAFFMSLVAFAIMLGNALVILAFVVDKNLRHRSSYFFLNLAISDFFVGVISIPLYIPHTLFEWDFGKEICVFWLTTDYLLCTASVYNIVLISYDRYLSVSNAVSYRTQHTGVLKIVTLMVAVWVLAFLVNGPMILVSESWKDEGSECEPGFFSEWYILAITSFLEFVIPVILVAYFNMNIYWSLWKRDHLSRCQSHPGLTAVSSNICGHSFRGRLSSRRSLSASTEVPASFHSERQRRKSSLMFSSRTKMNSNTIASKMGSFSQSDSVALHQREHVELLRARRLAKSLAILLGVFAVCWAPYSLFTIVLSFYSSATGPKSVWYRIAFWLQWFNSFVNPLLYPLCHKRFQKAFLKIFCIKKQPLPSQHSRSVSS

[4] = biological target: Prostaglandin G/H synthase 2 (Homo sapiens, UniProt P35354); assay: (§2) Inhibition of Cyclooxygenase COX-2 at compound concentration of 10.0 uM in the Eurofins-Panlabs enzyme assay (Eurofins_assay_118010); set-up: substrate with concentration 0.3 uM Arachidonic acid, incubation time 15 min, incubation temperature 37 C
[5] = biological target: T1, Prostaglandin G/H synthase 2 (Homo sapiens) (UniProt P35354); assay: as §2; set-up: substrate with concentration 0.3 uM Arachidonic acid, incubation time 15 min, incubation temperature 37 C
T1 sequence (whole entry): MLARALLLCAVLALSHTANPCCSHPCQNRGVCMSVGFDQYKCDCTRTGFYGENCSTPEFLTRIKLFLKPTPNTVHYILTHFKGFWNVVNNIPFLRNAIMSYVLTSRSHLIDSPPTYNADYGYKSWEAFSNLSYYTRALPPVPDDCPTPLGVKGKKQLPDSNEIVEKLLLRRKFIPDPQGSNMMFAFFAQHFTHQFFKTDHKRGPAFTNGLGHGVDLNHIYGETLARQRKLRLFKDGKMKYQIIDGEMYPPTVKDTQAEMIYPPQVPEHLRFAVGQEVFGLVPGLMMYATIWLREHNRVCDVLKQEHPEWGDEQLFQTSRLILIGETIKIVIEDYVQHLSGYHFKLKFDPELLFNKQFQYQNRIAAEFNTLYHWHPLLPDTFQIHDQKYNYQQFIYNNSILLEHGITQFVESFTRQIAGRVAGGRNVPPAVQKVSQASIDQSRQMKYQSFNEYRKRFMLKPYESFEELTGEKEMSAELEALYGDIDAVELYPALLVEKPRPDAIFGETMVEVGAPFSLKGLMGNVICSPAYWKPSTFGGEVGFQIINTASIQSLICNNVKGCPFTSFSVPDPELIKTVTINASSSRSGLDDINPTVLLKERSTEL

[6] = biological target: Phosphodiesterase PDE1 (Bos taurus) (UniProt Q01061+P14100+A0A3Q1MCV4); assay: (§3) Phosphodiesterase PDE1 Eurofins-Panlabs enzyme assay; format: protein assay; set-up: substrate with concentration [3H] cAMP + cAMP, incubation time 20 min, incubation temperature 25 °C
Phosphodiesterase PDE1 = Phosphodiesterase PDE1 (Bos taurus, UniProt Q01061+P14100+A0A3Q1MCV4); assay: as §3; format: protein assay; set-up: substrate with concentration [3H] cAMP + cAMP, incubation time 20 min, incubation temperature 25 °C
[7] = biological target: Glucocorticoid receptor (Homo sapiens) (UniProt P04150); assay: Glucocorticoid Eurofins-Panlabs radioligand binding assay; settings: Compound concentration 10.0 uM
Sequence of Glucocorticoid receptor (Homo sapiens) (P04150 whole entry): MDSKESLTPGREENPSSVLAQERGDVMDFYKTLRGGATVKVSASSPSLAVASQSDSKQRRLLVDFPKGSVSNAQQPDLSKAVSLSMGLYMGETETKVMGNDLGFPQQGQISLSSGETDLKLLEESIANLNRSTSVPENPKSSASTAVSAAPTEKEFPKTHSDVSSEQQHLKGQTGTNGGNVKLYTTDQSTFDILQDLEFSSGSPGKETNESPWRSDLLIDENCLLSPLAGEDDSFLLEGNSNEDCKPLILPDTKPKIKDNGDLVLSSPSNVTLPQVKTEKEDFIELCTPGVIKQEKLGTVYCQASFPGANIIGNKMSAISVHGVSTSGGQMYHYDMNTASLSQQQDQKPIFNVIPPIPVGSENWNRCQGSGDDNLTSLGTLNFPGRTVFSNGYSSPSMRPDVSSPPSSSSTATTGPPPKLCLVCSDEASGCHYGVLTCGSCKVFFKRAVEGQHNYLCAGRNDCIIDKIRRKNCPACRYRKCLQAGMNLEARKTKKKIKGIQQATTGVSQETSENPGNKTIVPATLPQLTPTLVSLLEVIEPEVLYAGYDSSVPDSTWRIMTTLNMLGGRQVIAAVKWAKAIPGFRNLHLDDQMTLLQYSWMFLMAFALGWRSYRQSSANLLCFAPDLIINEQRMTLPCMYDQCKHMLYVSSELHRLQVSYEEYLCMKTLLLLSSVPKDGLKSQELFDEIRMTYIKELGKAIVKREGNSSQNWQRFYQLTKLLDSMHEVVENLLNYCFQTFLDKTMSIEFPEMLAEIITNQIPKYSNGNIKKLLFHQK

[8] = biological target: GABA-A receptor; anion channel (Rattus norvegicus) (UniProt O09028+P15431+P18506+P18508+P19969+P20236+P23574+P23576+P28471+P28473+P30191+P62813+P63079+P63138+Q91ZM7+Q9ES14); assay: Inhibition of GABAA, Muscimol, Central at 10 µM in the Eurofins-Panlabs radioligand binding assay (Eurofins_assay_226500); format: protein-complex assay; settings: Compound concentration 10.0 uM
[9] = biological target: Estrogen receptor (Homo sapiens) (UniProt P03372); settings: Compound concentration 10.0 uM
Sequence of Estrogen receptor (Homo sapiens) (P03372 whole entry): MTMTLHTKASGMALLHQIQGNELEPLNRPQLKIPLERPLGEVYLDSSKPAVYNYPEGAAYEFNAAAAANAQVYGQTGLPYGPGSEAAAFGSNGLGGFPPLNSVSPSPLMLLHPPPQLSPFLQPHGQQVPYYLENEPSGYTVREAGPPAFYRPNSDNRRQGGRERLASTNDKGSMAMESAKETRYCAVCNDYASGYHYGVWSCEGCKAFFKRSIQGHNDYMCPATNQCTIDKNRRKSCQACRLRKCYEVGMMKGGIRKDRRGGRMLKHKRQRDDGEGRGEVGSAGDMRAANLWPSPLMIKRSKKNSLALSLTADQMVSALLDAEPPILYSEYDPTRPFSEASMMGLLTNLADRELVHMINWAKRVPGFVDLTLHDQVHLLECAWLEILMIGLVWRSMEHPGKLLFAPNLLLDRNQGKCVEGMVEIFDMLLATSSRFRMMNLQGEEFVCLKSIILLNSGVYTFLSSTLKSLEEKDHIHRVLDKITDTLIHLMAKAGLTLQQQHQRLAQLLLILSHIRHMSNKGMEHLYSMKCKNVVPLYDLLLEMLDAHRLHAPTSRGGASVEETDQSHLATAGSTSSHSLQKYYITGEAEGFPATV

[10] = biological target: Substance-P receptor (Homo sapiens) (UniProt P25103); assay: Tachykinin NK1 Eurofins-Panlabs radioligand binding assay; settings: Compound concentration 10.0 uM
Sequence of Substance-P receptor (Homo sapiens) (P25103 whole entry): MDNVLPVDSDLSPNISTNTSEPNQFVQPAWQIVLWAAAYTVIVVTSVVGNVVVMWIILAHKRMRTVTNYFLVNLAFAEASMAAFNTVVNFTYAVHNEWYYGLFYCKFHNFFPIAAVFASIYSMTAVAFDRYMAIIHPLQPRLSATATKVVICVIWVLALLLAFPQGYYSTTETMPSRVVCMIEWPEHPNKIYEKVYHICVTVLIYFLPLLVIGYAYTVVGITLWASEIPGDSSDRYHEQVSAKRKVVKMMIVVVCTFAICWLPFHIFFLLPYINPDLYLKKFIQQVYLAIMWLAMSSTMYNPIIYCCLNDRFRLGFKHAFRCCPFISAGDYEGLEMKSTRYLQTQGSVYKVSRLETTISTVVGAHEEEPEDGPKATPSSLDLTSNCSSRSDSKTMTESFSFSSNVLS

[11] = biological target: Polyunsaturated fatty acid 5-lipoxygenase (Homo sapiens) (UniProt P09917); assay: Lipoxygenase 5-LO Eurofins-Panlabs enzyme assay; settings: Compound concentration 10.0 uM
Sequence of Polyunsaturated fatty acid 5-lipoxygenase (Homo sapiens) (P09917 whole entry): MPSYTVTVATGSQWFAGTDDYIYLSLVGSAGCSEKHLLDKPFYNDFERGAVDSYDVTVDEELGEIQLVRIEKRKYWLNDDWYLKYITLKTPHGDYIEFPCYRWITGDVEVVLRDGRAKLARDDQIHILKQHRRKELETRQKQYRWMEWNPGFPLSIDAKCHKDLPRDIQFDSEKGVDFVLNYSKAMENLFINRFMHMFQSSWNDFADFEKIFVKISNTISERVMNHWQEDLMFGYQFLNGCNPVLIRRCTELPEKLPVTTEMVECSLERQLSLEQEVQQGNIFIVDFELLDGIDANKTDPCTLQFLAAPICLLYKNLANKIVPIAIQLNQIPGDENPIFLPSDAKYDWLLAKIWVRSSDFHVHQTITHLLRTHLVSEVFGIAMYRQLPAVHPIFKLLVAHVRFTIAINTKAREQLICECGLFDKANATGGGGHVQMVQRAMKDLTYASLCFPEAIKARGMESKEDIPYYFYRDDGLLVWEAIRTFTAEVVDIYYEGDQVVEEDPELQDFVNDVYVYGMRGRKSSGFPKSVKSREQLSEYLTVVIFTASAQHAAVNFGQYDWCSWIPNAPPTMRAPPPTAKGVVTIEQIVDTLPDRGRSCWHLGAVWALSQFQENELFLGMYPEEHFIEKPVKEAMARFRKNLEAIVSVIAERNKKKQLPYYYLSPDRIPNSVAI

[12] = biological target: ATP-sensitive inward rectifier potassium channel 11 (Cricetulus griseus) (UniProt A0A3L7HHE1); assay: Inhibition of Potassium Channel [KATP] at 10 µM in the Eurofins-Panlabs radioligand binding assay (Eurofins_assay_265600); settings: Cricetinae; Compound concentration 10.0 uM
Sequence of ATP-sensitive inward rectifier potassium channel 11 (Cricetulus griseus) (A0A3L7HHE1 as listed by the source): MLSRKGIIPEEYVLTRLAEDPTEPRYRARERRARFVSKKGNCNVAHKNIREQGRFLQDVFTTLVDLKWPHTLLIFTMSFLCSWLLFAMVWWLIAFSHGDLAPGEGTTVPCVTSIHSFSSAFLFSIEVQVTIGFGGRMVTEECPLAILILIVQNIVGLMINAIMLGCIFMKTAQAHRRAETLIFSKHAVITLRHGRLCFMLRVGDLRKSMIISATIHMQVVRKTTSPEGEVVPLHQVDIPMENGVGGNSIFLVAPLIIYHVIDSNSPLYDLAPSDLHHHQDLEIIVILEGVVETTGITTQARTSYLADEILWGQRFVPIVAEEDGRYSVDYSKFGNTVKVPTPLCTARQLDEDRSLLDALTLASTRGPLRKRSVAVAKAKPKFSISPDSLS

[13] = biological target: Neuromedin-K receptor (Homo sapiens) (UniProt P29371); assay: Tachykinin NK3 Eurofins-Panlabs radioligand binding assay; set-up: ligand concentration 0.8 nM; settings: Compound concentration 10.0 uM
Sequence of Neuromedin-K receptor (Homo sapiens) (P29371 whole entry): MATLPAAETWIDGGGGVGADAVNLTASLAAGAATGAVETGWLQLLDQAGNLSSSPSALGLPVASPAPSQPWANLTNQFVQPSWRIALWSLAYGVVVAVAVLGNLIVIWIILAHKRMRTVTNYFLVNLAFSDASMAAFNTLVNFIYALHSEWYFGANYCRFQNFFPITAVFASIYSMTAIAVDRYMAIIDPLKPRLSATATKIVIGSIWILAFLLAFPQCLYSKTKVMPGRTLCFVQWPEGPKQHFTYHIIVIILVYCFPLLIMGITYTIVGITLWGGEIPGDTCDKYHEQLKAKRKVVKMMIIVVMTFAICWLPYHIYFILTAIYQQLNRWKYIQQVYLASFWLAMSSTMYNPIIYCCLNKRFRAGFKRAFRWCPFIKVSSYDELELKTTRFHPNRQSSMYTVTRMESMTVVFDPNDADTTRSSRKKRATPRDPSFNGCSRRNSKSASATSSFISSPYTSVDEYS

[14] = biological target: Vasopressin V2 receptor (Homo sapiens) (UniProt P30518); assay: Vasopressin V2 Eurofins-Panlabs radioligand binding assay; set-up: ligand concentration 0.5 nM; settings: Compound concentration 10.0 uM
Sequence of Vasopressin V2 receptor (Homo sapiens) (P30518 whole entry): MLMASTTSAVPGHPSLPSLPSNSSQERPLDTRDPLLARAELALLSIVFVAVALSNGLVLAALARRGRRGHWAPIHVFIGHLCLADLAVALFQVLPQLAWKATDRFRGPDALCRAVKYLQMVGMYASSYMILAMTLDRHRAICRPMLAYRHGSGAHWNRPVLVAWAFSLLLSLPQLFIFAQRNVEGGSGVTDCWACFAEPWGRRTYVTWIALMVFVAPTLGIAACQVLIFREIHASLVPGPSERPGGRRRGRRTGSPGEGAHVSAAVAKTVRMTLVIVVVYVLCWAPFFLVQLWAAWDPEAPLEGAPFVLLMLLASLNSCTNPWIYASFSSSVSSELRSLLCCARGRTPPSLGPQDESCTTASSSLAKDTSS

Insulin receptor = Insulin receptor (Homo sapiens, UniProt P06213); settings: Rattus norvegicus; Compound concentration 10.0 uM
[15] = biological target: T2, Alpha-1D adrenergic receptor (Homo sapiens) (UniProt P25100); assay: Inhibition of Adrenergic alpha1D at 10 µM in the Eurofins-Panlabs radioligand binding assay (Eurofins_assay_203400); settings: Compound concentration 10.0 uM
T2 sequence (whole entry): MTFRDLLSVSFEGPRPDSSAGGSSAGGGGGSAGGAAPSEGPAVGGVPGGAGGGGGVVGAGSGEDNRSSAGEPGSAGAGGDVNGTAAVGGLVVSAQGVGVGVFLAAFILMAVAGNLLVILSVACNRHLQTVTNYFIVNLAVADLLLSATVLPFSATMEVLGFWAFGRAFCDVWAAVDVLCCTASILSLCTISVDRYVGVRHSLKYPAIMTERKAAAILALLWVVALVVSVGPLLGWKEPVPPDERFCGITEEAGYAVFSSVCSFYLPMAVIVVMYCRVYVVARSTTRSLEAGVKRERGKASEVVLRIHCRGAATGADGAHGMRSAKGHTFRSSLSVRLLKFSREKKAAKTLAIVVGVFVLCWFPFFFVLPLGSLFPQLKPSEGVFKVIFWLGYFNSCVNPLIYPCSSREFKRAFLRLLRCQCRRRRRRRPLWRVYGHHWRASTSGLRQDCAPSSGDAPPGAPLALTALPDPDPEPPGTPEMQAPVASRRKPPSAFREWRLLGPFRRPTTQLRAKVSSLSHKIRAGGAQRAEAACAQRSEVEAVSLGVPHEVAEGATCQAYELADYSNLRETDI

[16] = biological target: SNF-related serine/threonine-protein kinase (Homo sapiens) (UniProt Q9NRH2); settings: Compound concentration 1000.0 nM
Sequence of SNF-related serine/threonine-protein kinase (Homo sapiens) (Q9NRH2 whole entry): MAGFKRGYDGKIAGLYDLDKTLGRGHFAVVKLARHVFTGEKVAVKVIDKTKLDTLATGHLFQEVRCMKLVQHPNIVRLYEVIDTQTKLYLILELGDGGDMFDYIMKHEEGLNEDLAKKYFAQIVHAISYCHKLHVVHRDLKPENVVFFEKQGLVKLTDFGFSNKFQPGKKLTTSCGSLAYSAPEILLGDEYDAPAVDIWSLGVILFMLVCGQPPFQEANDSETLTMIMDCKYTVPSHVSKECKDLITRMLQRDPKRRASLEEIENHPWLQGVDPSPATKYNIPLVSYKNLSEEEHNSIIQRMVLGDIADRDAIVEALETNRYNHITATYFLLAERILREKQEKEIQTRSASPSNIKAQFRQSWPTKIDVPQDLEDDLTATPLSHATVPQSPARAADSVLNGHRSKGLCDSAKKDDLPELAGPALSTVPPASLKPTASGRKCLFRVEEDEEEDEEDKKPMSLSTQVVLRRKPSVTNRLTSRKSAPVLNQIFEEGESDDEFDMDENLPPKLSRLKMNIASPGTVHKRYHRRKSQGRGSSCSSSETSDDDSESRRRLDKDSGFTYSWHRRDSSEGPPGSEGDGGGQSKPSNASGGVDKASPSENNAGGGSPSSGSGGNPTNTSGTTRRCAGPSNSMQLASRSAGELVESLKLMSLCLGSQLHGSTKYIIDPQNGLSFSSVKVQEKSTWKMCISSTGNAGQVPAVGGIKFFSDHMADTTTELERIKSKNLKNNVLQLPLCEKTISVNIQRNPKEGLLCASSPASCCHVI

For `O=C(O)c1cc(-c2ccc(C3CCNCC3)cc2)c2ccc(-c3ccc(C(F)(F)F)cc3)cc2c1` [PPTN], which inhibition (Homo sapiens; Compound concentration 0.01 uM) is on record?
Its inhibition is 14%.

What about the inhibition (Homo sapiens; Compound concentration 0.1 uM) of the same compound?
Its inhibition is -5%.

And the inhibition (Homo sapiens; Compound concentration 1.0 uM)?
The inhibition was 9%.

What about the inhibition (Homo sapiens; Compound concentration 10.0 uM) of the same compound?
The inhibition was 51%.

What about the IC50 [1] of the same compound?
The IC50 was 9.5 µM.

And the Ki [1]?
The Ki was 6.2 µM.

What about the inhibition [2] of the same compound?
Its inhibition is 9%.

What about the inhibition [3] of the same compound?
Its inhibition is 15%.

What about the IC50 [4] of the same compound?
The IC50 was 8.71 µM.

What about the inhibition ([5]; Compound concentration 0.01 uM) of the same compound?
Its inhibition is -3%.

What about the inhibition ([5]; Compound concentration 0.1 uM) of the same compound?
Its inhibition is 0%.

And the inhibition ([5]; Compound concentration 1.0 uM)?
The inhibition was -1%.

And the inhibition ([5]; Compound concentration 10.0 uM)?
The inhibition was 70%.

What about the inhibition ([6]; Compound concentration 0.1 uM) of the same compound?
The inhibition was -8%.

And the inhibition ([6]; Compound concentration 1.0 uM)?
The inhibition was -5%.

What about the inhibition ([6]; Compound concentration 10.0 uM) of the same compound?
The inhibition was 51%.

What about the inhibition ([6]; Compound concentration 100.0 uM) of the same compound?
The inhibition was 70%.

What about the IC50 (Phosphodiesterase PDE1) of the same compound?
The IC50 was 17.6 µM.

What about the inhibition [7] of the same compound?
Its inhibition is -9%.

And the inhibition [8]?
The inhibition was 12%.

What about the inhibition [9] of the same compound?
Its inhibition is 12%.

What about the inhibition [10] of the same compound?
The inhibition was 1%.

What about the inhibition [11] of the same compound?
Its inhibition is -9%.

What about the inhibition [12] of the same compound?
The inhibition was 1%.

What about the inhibition [13] of the same compound?
The inhibition was 29%.

What about the inhibition [14] of the same compound?
The inhibition was 28%.

What about the inhibition (Insulin receptor) of the same compound?
The inhibition was -8%.

What about the inhibition [15] of the same compound?
Its inhibition is -5%.

And the residual activity [16]?
The residual activity was 71%.

— ChEMBL document CHEMBL4507292 (2021)
